Legend:
[1] = tested on: IL-2 stimulated pSTAT5 in Tall-1 T cells; experiment: Cellular JAK3 potency assay: inhibition of IL-2 stimulated pSTAT5 in Tall-1 T cells; type: cell-based, human; conditions: Homo sapiens, TALL-1, IL-2 stimulated pSTAT5, Tall-1 T cells; read-out: Tall-1 (pIC50) (converted)
Summary of the method: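 Tall-1 human T cells were preincubated with compound for 1 h at 37° C, then stimulated with IL-2 (300 ng/ml final) for 30 min. STAT5 phosphorylation in lysates was read by AlphaLisa bead emission, and IC50 from inhibition curves is given as pIC50 (mean±SD).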

[2] = molecular target: T1, JAK3 (Homo sapiens, UniProt P52333); experiment: Biochemical JAK3 kinase assay (LanthaScreen); set-up: GST; purchased Life Technologies; conditions: for Ki: read-out: JAK 3 (pKi) (converted); for JAK3 (pKi)-JAK1 (pKi): selectivity JAK3 over JAK1, difference of pKi
T1 sequence (P52333 1-1124): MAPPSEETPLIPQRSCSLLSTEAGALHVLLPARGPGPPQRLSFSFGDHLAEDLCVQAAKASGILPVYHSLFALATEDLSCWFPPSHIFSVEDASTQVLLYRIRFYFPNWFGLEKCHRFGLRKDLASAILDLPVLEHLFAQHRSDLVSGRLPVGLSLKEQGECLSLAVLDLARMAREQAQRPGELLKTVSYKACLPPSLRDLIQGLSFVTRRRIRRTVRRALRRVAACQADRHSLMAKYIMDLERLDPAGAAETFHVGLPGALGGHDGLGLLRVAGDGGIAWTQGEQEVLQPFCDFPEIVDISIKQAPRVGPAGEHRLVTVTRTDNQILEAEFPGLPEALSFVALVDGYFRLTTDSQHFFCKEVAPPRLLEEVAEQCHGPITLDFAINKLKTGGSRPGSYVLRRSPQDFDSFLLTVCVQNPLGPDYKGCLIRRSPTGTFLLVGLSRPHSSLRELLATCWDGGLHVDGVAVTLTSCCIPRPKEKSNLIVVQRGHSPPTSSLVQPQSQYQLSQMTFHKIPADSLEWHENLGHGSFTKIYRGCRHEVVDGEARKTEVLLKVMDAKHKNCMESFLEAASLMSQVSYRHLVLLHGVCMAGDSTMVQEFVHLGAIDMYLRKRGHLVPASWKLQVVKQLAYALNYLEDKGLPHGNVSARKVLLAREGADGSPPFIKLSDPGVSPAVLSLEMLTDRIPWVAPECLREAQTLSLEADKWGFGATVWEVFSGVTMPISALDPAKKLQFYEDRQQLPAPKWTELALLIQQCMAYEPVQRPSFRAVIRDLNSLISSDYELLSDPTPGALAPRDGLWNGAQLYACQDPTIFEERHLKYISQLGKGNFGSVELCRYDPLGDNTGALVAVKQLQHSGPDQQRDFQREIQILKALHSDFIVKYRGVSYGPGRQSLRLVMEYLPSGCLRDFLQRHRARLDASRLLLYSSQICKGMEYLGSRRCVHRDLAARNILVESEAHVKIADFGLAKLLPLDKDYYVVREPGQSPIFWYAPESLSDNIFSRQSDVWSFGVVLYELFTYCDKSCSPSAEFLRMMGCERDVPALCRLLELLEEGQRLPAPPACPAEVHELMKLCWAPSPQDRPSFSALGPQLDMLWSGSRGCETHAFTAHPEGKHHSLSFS
Summary of the method: (§1)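 Recombinant GST-tagged JAK enzymes with GFP-STAT1 peptide substrate in 50 mM HEPES pH 7.5, 10 mM MgCl2, 1 mM EGTA, 0.01% Brij-35; compounds pre-incubated 1 h, then ATP added, 1 h reaction at ambient temperature. TR-FRET (Tb-anti-pSTAT1 pTyr701, 520/495 nm) after EDTA stop; IC50 by 4-parameter fit, converted to pKi via Cheng-Prusoff.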

[3] = molecular target: T2, JAK1 (Homo sapiens, UniProt P23458); experiment: Biochemical JAK1 kinase assay (LanthaScreen); conditions: read-out: JAK 1 (pKi) (converted)
T2 construct: GST; purchased Life Technologies
Summary of the method: as §1

T2 sequence (P23458 whole entry): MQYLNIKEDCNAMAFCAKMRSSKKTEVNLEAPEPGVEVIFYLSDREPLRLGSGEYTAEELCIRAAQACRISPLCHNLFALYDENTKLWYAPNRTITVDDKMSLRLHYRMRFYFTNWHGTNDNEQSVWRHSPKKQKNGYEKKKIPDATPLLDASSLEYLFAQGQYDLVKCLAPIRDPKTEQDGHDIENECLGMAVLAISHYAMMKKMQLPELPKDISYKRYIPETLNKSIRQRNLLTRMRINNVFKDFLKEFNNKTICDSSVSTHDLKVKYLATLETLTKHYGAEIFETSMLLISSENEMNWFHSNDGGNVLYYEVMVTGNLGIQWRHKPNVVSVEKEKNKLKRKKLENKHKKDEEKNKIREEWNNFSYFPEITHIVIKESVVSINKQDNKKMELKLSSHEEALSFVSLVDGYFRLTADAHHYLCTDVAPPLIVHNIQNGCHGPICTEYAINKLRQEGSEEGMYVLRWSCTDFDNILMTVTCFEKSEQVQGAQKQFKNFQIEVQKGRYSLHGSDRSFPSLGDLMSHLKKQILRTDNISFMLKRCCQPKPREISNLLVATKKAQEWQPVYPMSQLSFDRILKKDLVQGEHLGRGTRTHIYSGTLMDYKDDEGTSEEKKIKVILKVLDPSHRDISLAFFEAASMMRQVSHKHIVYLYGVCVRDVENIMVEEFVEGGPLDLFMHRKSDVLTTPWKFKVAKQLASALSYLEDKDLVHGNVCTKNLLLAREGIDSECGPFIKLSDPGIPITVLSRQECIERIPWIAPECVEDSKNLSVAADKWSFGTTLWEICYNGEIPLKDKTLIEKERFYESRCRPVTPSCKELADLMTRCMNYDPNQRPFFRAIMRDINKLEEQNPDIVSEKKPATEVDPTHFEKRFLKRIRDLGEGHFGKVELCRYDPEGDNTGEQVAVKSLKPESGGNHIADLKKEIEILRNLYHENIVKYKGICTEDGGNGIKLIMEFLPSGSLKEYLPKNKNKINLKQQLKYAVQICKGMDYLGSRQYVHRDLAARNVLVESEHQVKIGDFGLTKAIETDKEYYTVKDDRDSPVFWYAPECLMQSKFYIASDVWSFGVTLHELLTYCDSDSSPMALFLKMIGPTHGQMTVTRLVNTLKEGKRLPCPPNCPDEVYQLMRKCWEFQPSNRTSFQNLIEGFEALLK

## CN(C)C/C=C/C(=O)N1CCC(Sc2cc(-c3ccc(O)cc3)cc3[nH]ncc23)CC1 [Compound 12-5]
[1]
  IC50: 31.6 to 200 nM
[2]
  Ki: 0.1 to 1 nM
  JAK3 (pKi)-JAK1 (pKi): B (a value of 2.3 to 3)
[3]
  Ki: > 100 nM

## C=CC(=O)N1CCC[C@H](Sc2cc(-c3ccc(O)cc3)cc3[nH]ncc23)C1 [Compound 12-6]
[1]
  IC50: 31.6 to 200 nM
[2]
  Ki: 0.1 to 1 nM
  JAK3 (pKi)-JAK1 (pKi): B (a value of 2.3 to 3)
[3]
  Ki: 10 to 100 nM

## CN(C)C/C=C/C(=O)N1CCC[C@H](Sc2cc(-c3ccc(O)cc3)cc3[nH]ncc23)C1 [Compound 12-7]
[1]
  IC50: 200 to 1000 nM
[2]
  Ki: 0.1 to 1 nM
  JAK3 (pKi)-JAK1 (pKi): C (a value of 1.8 to 2.3)
[3]
  Ki: 10 to 100 nM

## C=CC(=O)N1CCC(S(=O)(=O)c2cc(-c3ccc(O)cc3)cc3[nH]ncc23)CC1 [Compound 12-8]
[1]
  IC50: 200 to 1000 nM
[2]
  Ki: 0.1 to 1 nM
  JAK3 (pKi)-JAK1 (pKi): A (a value of 3 or above)
[3]
  Ki: > 100 nM

## C=CC(=O)N1CCC[C@H](S(=O)(=O)c2cc(-c3ccc(O)cc3)cc3[nH]ncc23)C1 [Compound 12-9]
[1]
  IC50: 200 to 1000 nM
[2]
  Ki: 0.1 to 1 nM
  JAK3 (pKi)-JAK1 (pKi): A (a value of 3 or above)
[3]
  Ki: > 100 nM

## CN(C)C/C=C/C(=O)N1CCC(Cc2cc(-c3ccc(O)cc3)cc3[nH]ncc23)CC1 [Compound 12-14]
[1]
  IC50: 200 to 1000 nM
[2]
  Ki: 0.1 to 1 nM
  JAK3 (pKi)-JAK1 (pKi): C (a value of 1.8 to 2.3)
[3]
  Ki: > 100 nM

## C=CC(=O)N1CC[C@H](Nc2cc(-c3ccc(O)cc3)cc3[nH]ncc23)C[C@@H]1C [Compound 12-15]
[1]
  IC50: 31.6 to 200 nM
[2]
  Ki: 0.1 to 1 nM
  JAK3 (pKi)-JAK1 (pKi): B (a value of 2.3 to 3)
[3]
  Ki: > 100 nM

## C=CC(=O)N1CC[C@@H](Nc2cc(-c3ccc(O)cc3)cc3[nH]ncc23)C1 [Compound 12-18]
[1]
  IC50: 31.6 to 200 nM
[2]
  Ki: < 0.1 nM
  JAK3 (pKi)-JAK1 (pKi): B (a value of 2.3 to 3)
[3]
  Ki: 10 to 100 nM

## CN(C)C/C=C/C(=O)N1CC[C@@H](COc2cc(-c3ccc(O)cc3)cc3[nH]ncc23)C1 [Compound 12-19]
[1]
  IC50: 200 to 1000 nM
[2]
  Ki: < 0.1 nM
  JAK3 (pKi)-JAK1 (pKi): A (a value of 3 or above)
[3]
  Ki: > 100 nM

## C=CC(=O)N1CC2(CC(Oc3cc(-c4ccc(O)cc4)cc4[nH]ncc34)C2)C1 [Compound 12-21]
[1]
  IC50: < 31.6 nM
[2]
  Ki: 0.1 to 1 nM
  JAK3 (pKi)-JAK1 (pKi): B (a value of 2.3 to 3)
[3]
  Ki: > 100 nM

## CN(C)C/C=C/C(=O)N1CC[C@@H]1COc1cc(-c2ccc(O)cc2)cc2[nH]ncc12 [Compound 12-22]
[1]
  IC50: 200 to 1000 nM
[2]
  Ki: 0.1 to 1 nM
  JAK3 (pKi)-JAK1 (pKi): A (a value of 3 or above)
[3]
  Ki: > 100 nM

## C=CC(=O)N1CC[C@@H]1COc1cc(-c2ccc(O)cc2)cc2[nH]ncc12 [Compound 12-23]
[1]
  IC50: 31.6 to 200 nM
[2]
  Ki: 0.1 to 1 nM
  JAK3 (pKi)-JAK1 (pKi): A (a value of 3 or above)
[3]
  Ki: > 100 nM

## CN(C)C/C=C/C(=O)N1CC[C@H]1COc1cc(-c2ccc(O)cc2)cc2[nH]ncc12 [Compound 12-24]
[1]
  IC50: 200 to 1000 nM
[2]
  Ki: 0.1 to 1 nM
  JAK3 (pKi)-JAK1 (pKi): A (a value of 3 or above)
[3]
  Ki: > 100 nM

## C=CC(=O)N1CC[C@H]1COc1cc(-c2ccc(O)cc2)cc2[nH]ncc12 [Compound 12-25]
[1]
  IC50: 200 to 1000 nM
[2]
  Ki: 0.1 to 1 nM
  JAK3 (pKi)-JAK1 (pKi): B (a value of 2.3 to 3)
[3]
  Ki: > 100 nM

## C=CC(=O)N1CC(F)(C2(Oc3cc(-c4ccc(O)cc4)cc4[nH]ncc34)CC2)C1 [Compound 12-37]
[1]
  IC50: 31.6 to 200 nM
[2]
  Ki: 0.1 to 1 nM
  JAK3 (pKi)-JAK1 (pKi): B (a value of 2.3 to 3)
[3]
  Ki: 10 to 100 nM

## C=CC(=O)N1CCCC(C(=O)Nc2cc(-c3ccc(O)cc3)cc3[nH]ncc23)C1 (centres unmarked) [Compound 12-40]
[1]
  IC50: 200 to 1000 nM
[2]
  Ki: 0.1 to 1 nM
  JAK3 (pKi)-JAK1 (pKi): B (a value of 2.3 to 3)
[3]
  Ki: > 100 nM

## CN(C)C/C=C/C(=O)N1CC2(CC(Oc3cc(-c4ccc(O)cc4)cc4[nH]ncc34)C2)C1 [Compound 12-52]
[1]
  IC50: 200 to 1000 nM
[2]
  Ki: 0.1 to 1 nM
  JAK3 (pKi)-JAK1 (pKi): B (a value of 2.3 to 3)
[3]
  Ki: 10 to 100 nM
